Here are results for six compounds from ChEMBL document CHEMBL5257037, “Side Chain Cyclized Aromatic Amino Acids: Great Tools as Local Constraints in Peptide and Peptidomimetic Design” (J Med Chem, 2016).

One test addresses T1, Angiotensin-converting enzyme (Rattus norvegicus) (UniProt P47820).
T1 sequence (whole entry): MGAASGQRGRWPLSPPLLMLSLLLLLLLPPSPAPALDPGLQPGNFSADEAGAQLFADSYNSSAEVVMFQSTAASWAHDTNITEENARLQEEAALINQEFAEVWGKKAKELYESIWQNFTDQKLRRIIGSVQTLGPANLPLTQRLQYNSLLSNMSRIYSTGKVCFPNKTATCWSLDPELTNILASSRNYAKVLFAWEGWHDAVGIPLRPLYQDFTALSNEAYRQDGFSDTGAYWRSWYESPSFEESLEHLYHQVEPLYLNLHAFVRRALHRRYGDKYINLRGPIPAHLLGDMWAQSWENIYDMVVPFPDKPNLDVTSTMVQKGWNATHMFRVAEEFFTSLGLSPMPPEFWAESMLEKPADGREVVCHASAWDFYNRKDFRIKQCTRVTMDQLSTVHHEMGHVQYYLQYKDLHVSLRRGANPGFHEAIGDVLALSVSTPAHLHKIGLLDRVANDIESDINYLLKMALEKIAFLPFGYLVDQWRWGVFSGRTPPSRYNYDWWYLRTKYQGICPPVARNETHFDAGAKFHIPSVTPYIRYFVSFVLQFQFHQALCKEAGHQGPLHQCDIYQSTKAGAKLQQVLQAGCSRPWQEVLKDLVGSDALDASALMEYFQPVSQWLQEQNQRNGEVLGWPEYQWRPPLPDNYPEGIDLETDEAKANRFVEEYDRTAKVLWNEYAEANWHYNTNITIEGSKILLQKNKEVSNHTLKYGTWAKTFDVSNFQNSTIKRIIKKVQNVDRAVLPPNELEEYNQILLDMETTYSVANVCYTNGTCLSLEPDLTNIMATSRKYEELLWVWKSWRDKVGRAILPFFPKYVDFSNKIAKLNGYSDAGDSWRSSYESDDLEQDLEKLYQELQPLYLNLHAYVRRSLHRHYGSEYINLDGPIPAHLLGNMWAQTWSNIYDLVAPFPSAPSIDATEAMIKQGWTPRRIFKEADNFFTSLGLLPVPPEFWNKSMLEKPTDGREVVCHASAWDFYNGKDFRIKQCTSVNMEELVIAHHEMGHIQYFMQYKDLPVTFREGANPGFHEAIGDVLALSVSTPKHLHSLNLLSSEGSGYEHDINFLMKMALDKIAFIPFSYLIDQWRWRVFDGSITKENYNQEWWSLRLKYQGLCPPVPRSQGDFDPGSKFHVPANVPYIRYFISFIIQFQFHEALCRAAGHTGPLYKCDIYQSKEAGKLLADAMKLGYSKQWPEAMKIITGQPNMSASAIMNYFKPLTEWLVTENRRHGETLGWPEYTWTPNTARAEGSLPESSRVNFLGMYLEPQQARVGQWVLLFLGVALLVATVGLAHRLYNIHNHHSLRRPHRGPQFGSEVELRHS
Kind of test: In vivo inhibition of ACE in iv dosed rat assessed as inhibition of Ang1 induced pressor response. It is filed as functional, organism-based.
As for `C[C@H](NC(=O)[C@@H](CS)Cc1ccccc1)C(=O)N1Cc2ccccc2C[C@H]1C(=O)O`, the ED50 was 0.57 µmol/kg.
On the same count and under the same terms, then `O=C(O)CN1C(=O)[C@@H](NC(=O)[C@@H](S)Cc2ccccc2)CCc2ccccc21`, with 0.02 µmol/kg.
On the same count and under the same terms, then `C[C@H](NC(=O)[C@@H](S)Cc1ccccc1)C(=O)N1CCC[C@H]1C(=O)O`, with 0.06 µmol/kg; and `C[C@H](NC(=O)[C@@H](CS)Cc1ccccc1)C(=O)N1CCC[C@H]1C(=O)O`, with 0.5 µmol/kg.
Still for that read-out and setting: then `C[C@H](NC(=O)[C@@H](CS)Cc1ccccc1)C(=O)N1c2ccccc2C[C@H]1C(=O)O`, with 0.15 µmol/kg.

A further test has as its target T2, B2 bradykinin receptor (Homo sapiens) (UniProt P30411).
T2 sequence (whole entry): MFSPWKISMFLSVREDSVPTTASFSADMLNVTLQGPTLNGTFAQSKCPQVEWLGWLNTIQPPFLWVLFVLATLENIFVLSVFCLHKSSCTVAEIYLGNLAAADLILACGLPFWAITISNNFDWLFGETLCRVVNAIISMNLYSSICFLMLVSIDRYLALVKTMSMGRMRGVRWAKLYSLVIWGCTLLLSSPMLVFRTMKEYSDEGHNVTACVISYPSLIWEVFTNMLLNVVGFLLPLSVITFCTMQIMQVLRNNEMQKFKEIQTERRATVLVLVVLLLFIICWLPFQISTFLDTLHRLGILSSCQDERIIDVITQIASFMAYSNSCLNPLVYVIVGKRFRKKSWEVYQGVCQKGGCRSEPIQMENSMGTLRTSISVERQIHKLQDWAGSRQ
Description: Inhibition of B2 bradykinin receptor (unknown origin) at 10 mM relative to control.
Regarding `C[C@@H](C(=O)N[C@@H](CCCNC(=N)N)C(=O)O)N1Cc2ccccc2C[C@@H](NC(=O)[C@H](CO)NC(=O)[C@H](Cc2ccccc2)NC(=O)CNC(=O)[C@@H]2CCCN2C(=O)[C@@H]2CCCN2C(=O)[C@@H](N)CCCNC(=N)N)C1=O`, the inhibition amounted to 54%.
